Measured values taken from PubChem BioAssay (NCI).
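Tested at 5 concentrations; 48 h exposure; 96-well plates; endpoints linearly interpolated, else capped at highest concentration. Abbreviation: GI50, concentration required for 50% inhibition of growth. TGI is the concentration that stops growth completely.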

How the values were obtained:
Assay in all cases: NCI anticancer screen, dose series, 48 h
LOX IMVI melanoma = test system: LOX IMVI melanoma
NCI-H460 lung = test system: NCI-H460 lung
OVCAR-4 ovarian = test system: OVCAR-4 ovarian
SF-268 CNS = test system: SF-268 CNS
SF-295 CNS = test system: SF-295 CNS
SK-MEL-2 melanoma = test system: SK-MEL-2 melanoma
SK-MEL-5 melanoma = test system: SK-MEL-5 melanoma
SNB-75 CNS = test system: SNB-75 CNS
SW-620 colon = test system: SW-620 colon
SR leukemia = test system: SR leukemia

Row | SMILES | TGI (LOX IMVI melanoma) | TGI (NCI-H460 lung) | TGI (OVCAR-4 ovarian) | TGI (SF-268 CNS) | TGI (SF-295 CNS) | TGI (SK-MEL-2 melanoma) | TGI (SK-MEL-5 melanoma) | TGI (SNB-75 CNS) | TGI (SW-620 colon) | TGI (SR leukemia) | GI50 (LOX IMVI melanoma) | GI50 (NCI-H460 lung) | GI50 (OVCAR-4 ovarian) | GI50 (SF-268 CNS) | GI50 (SF-295 CNS) | GI50 (SK-MEL-2 melanoma) | GI50 (SK-MEL-5 melanoma) | GI50 (SNB-75 CNS) | GI50 (SR leukemia) | GI50 (SW-620 colon)
1 | COc1c2ccoc2c(S(=O)(=O)Nc2ccc(Cl)cc2)c2oc(C)cc(=O)c12 | > 100 µM | > 100 µM | > 67.2 µM | > 100 µM | > 100 µM | > 100 µM | > 100 µM | 76.4 µM | > 100 µM |  |  |  |  |  |  |  |  |  |  | 
2 | Cc1onc(-c2c(F)cccc2Cl)c1C(=O)N[C@@H]1C(=O)N2[C@@H]1SC(C)(C)[C@@H]2C(=O)O |  | > 100 µM | > 100 µM | > 100 µM | > 100 µM | > 100 µM | > 100 µM | > 100 µM | > 100 µM | > 100 µM |  |  |  |  |  |  |  |  |  | 
3 | FC(F)(F)C1=NC(=NNc2nnc(-c3ccccc3)c(-c3ccccc3)n2)N=C(C(F)(F)F)C1 | > 100 µM | > 100 µM | > 100 µM | > 100 µM | > 100 µM | > 100 µM | > 66 µM | > 100 µM | > 100 µM |  |  |  |  |  |  |  |  |  |  | 
4 | O=C(/N=C/c1c(O)c2ccccc2oc1=O)NC1CCCCC1 | > 100 µM | > 100 µM | > 100 µM | > 100 µM |  | > 100 µM | > 100 µM |  | > 100 µM | > 100 µM |  |  |  |  |  |  |  |  |  | 
5 | CCOC(=O)[C@H]1C[C@]23CN(C(=O)OC(C)(C)C)CC[C@H]2CCC2(SCCCS2)[C@@H]3N1C | > 100 µM | > 100 µM | 74.2 µM | > 100 µM | > 100 µM | 63.3 µM | 37.4 µM | > 100 µM | > 100 µM | 76.5 µM |  |  |  |  |  |  |  |  |  | 
6 | OC1(c2ccc3ccccc3c2)c2ccc3ccccc3c2C2=NCCN21 (stereo not given) | > 100 µM | > 100 µM | 85.8 µM | > 100 µM | > 100 µM | > 100 µM | > 100 µM | 46.9 µM | > 100 µM | > 100 µM |  |  |  |  |  |  |  |  |  | 
7 | Cc1ccc(S(=O)(=O)NCCSS(=O)(=O)c2ccc(C)cc2)cc1 | 53.5 µM | > 100 µM | > 100 µM | 46.3 µM | > 100 µM |  | 43.1 µM | 77.2 µM | 46.5 µM | 39 µM |  |  |  |  |  |  |  |  |  | 
8 | CC[N+](CC)(CC)/C(=N/S(=O)(=O)c1cc(C)c(Cl)cc1S)[N-]S(=O)(=O)c1ccc(Cl)cc1 | > 100 µM | > 100 µM | > 100 µM | > 100 µM | > 100 µM | > 100 µM | > 100 µM |  | > 100 µM |  |  |  |  |  |  |  |  |  |  | 
9 | C=C1C(=O)OC2/C=C(\C)CC(O)/C=C(/CO)CC(OC(=O)/C(C)=C/C)C12 (stereo not given) |  | 168 µM | 319 µM | 233 µM | 401 µM | 344 µM | 44.1 µM | 417 µM | 50.3 µM |  |  |  |  |  |  |  |  |  |  | 
10 | ClCC1(CCl)COC1 | > 100 µM | > 100 µM | > 100 µM | > 100 µM | > 100 µM |  | > 100 µM | > 100 µM | > 100 µM | > 100 µM |  |  |  |  |  |  |  |  |  | 
11 | C[C@H](O)C(=O)SC[C@H](NC(=O)CC[C@@H](N)C(=O)O)C(=O)NCC(=O)O | > 100 µM | > 100 µM | > 100 µM | > 100 µM | > 100 µM | > 100 µM | > 100 µM | > 100 µM | > 100 µM | > 100 µM |  |  |  |  |  |  |  |  |  | 
12 | CCCc1ccc(OCC(=O)N/N=C/c2c(-c3ccccc3)[nH]c3ccccc23)cc1 | 21.6 µM | 22.7 µM | 42.7 µM | > 100 µM | 34.4 µM | 15.3 µM | 20.8 µM | 58.6 µM | > 100 µM | 23.1 µM |  |  |  |  |  |  |  |  |  | 
13 | CCOc1cc(NC(C)=O)ccc1C(=O)NN1C(=O)CSC1c1ccc(O)c(OC)c1 (stereo not given) | > 100 µM | > 100 µM | > 100 µM | > 100 µM | > 100 µM | > 100 µM | > 100 µM | > 100 µM | > 100 µM | > 100 µM |  |  |  |  |  |  |  |  |  | 
14 | CN(C)CCC(C(=O)C(C)(C)C)c1ccccn1 (stereo not given) | > 100 µM | > 100 µM | > 100 µM | > 100 µM | > 100 µM | > 100 µM | > 100 µM | > 100 µM | > 100 µM | > 100 µM |  |  |  |  |  |  |  |  |  | 
15 | C[C@]12CC[C@H](O)CC1=CC[C@@H]1[C@@H]2CC[C@]2(C)C(=O)CC[C@@H]12 | > 100 µM |  | > 100 µM | > 100 µM | > 100 µM | > 100 µM | > 100 µM | > 100 µM | > 100 µM | > 100 µM |  |  |  |  |  |  |  |  |  | 
16 | C=CCC1=CC2(OC)C(=O)C(OC)(OC)C1C1C(OC)(OC)C(=O)C(OC)=CC12CC=C (stereo not given) | > 100 µM | > 100 µM | > 100 µM | > 100 µM | > 100 µM | > 100 µM | > 100 µM | > 100 µM | > 100 µM |  |  |  |  |  |  |  |  |  |  | 
17 | CO[C@]12C[C@H](CNC(=O)c3cc(Br)c(Br)[nH]3)O[C@H]1NC(=O)N2 | > 100 µM | > 100 µM | > 100 µM | > 100 µM | > 100 µM | > 100 µM | > 100 µM | > 100 µM | > 100 µM | > 100 µM |  |  |  |  |  |  |  |  |  | 
18 | CC(O)=NC(Cc1ccc2ccccc2c1)C(O)=NC(Cc1ccc(Cl)cc1)C(O)=NC(Cc1c[nH]c2ccccc12)C(O)=NC(CO)C(O)=NC(Cc1ccc(O)cc1)C(O)=NC(CCCN=C(N)N)C(O)=NC(CC(C)C)C(O)=NC(CCCN=C(N)N)C(=O)N1CCCC1C(O)=NC(C)C(=N)O (stereo not given) |  | > 100 µM | > 100 µM | > 100 µM | > 100 µM | 90.9 µM | > 100 µM | > 100 µM | > 100 µM | > 100 µM |  |  |  |  |  |  |  |  |  | 
19 | NC(N)=N/N=C/c1ccc(O)c(C(=O)O)c1 | > 100 µM | > 100 µM | > 100 µM | > 100 µM | > 100 µM | > 100 µM | > 100 µM | > 100 µM | > 100 µM | > 100 µM |  |  |  |  |  |  |  |  |  | 
20 | COc1ccc(-n2cc(-c3ccc(OC)c(OC)c3)nc2SCc2ccccc2)cc1Cl | > 100 µM | > 100 µM | > 100 µM | > 100 µM | > 100 µM | 56.3 µM | 18.6 µM | > 100 µM | > 100 µM | 51.1 µM | 34.7 µM | 25.5 µM | 20.1 µM | 30.4 µM | 17.4 µM | 16.3 µM | 5.78 µM | 27.4 µM | 16 µM | 29.9 µM
21 | COc1cc(NCc2ccc3n2-c2ccccc2OC3)cc(OC)c1OC | 27.4 µM | > 100 µM | 55.5 µM | > 100 µM | 63.9 µM | 69.2 µM | 32.3 µM | 62.4 µM | > 100 µM | 35.6 µM |  |  |  |  |  |  |  |  |  | 
22 | Oc1ccc2ccccc2c1Cc1c(O)ccc2ccccc12 | 38.7 µM | > 100 µM | 30.6 µM | 31.1 µM | 37.1 µM | 41.7 µM | 32.1 µM | 42.2 µM | 39.9 µM |  |  |  |  |  |  |  |  |  |  | 
